Tested on: L6 muscle cells
Assay: Insulin-stimulated glucose uptake (2-NBDG) in L6 muscle cells
Format: cell-based
Settings: for glucose uptake relative to control cells: insulin stimulated, FIG. 5, V 500 IU, N 15 mg/ml, LA 0.5 mM; for increase in glucose uptake after insulin pulse over control cells: 100 nM insulin, FIG. 4
Experimental: The effect of each of vitamin D3, niacinamide and lipoic acid separately, and the fixed dose combination of vitamin D3, niacinamide and lipoic acid composition provided herein, were evaluated for the ability of each to have an effect on glucose uptake in an in vitro model. A goal was to improve insulin's ability to increase the uptake of glucose by L6 muscle cells.
Vitamin D3 was utilized to increase GLUT4 levels since this vitamin has been shown before to increase GLUT4 levels in muscle, and niacinamide was used to increase cellular NAD levels (El-Fakhri et al., Horm Res Paediact 81:363-378 (2014); Manna et al., J Biol Chem 287 (50): 42324-42332 (2012); Garten, Endocrinologist, Issue 135 (2020); and Fan et al., J Diabetes Investig. 11 (6): 1403-1419 (2020)). Glucose uptake studies using L6 cells were performed. L6 cells (ATCC CLR-1458; Rockville, MD) were maintained in Dulbecco's modified Eagle's medium (DMEM) supplemented with 10% Fetal Bovine Serum (FBS) and 100 μg/mL penicillin and streptomycin, at 37° C. in an atmosphere of 5% CO2. 2-(N-[7-nitrobenz-2-oxa-1, 3-diazol-4-yl]amino)-2-deoxyglucose (2-NBDG) (Molecular Probes-Invitrogen, CA, USA) was used to assess glucose uptake in the L6 cells. The cells were kept in glucose free medium for half an hour before insulin stimulation. The cells were then stimulated with 100 nM insulin for 10 and 20 min and incubated with 10 μM of 2-NBDG for 15 min. The reaction was stopped by washing with cold PBS three times and the cells were lysed using 0.1% Triton X. The lysate was then used to read florescence at […]. The data is reported in FIG. 4 as percent of control cells (no treatment, incubation with media).
Experiment conducted n=5. Student's t-tests were performed to compare between the present glucose uptake shown by control, vitamin D, niacinamide, and their combination at different time points.
Because the TCA cycle and glucose metabolism in the mitochondria generate oxidative stress, lipoic acid, an antioxidant (Golbidi et al., Front Pharmacol, Vol. 2, Article 69 (2011), 15 pages) which is known to enter the mitochondria, was tested to determine if it could further enhance glucose uptake. The following combinations were tested for improvements in muscle cell glucose uptake stimulated by insulin: Vitamin D3 plus Niacinamide plus or minus Lipoic acid alone.

| Compound | glucose uptake relative to control cells | increase in glucose uptake after insulin pulse over control cells (10 minutes) | increase in glucose uptake after insulin pulse over control cells (20 minutes) |
| --- | --- | --- | --- |
| O=C(O)CCCCC1CCSS1 (racemic) [Lipoic acid, DL-alpha-lipoic acid] | did not increase glucose uptake |  |  |
| NC(=O)c1cccnc1 [niacinamide] |  | about 3 fold | only little |
| C=C1CC[C@H](O)C/C1=C/C=C1\CCC[C@]2(C)[C@@H]([C@H](C)CCCC(C)C)CC[C@@H]12 [vitamin D3, cholecalciferol] |  | about 6 fold | less so |
| Vitamin E | had no effect |  |  |

From patent US20250262226A1, “COMBINATIONS OF VITAMIN D3, NIACINAMIDE AND LIPOIC ACID FOR USE IN THE MAINTENANCE OF HEALTHY BLOOD GLUCOSE LEVELS” (priority 2022, published 2025)
